Laboratory results published in patent publication US20260263456A1, “TADALAFIL GASTRIC-SOLUBLE RAPID-RELEASE SOLID DISPERSION, TABLET, AND USE THEREOF” (Shenzhen Hanhui Pharmaceutical Technology Co., Ltd., priority 2023, published 2026).
Values after ≈ are worked out from the molar mass of the structure shown.

How the values were obtained:
[1] = Polymer and surfactant screening: solubility of solid dispersions in pH 1.0 and pH 6.8 media; assay type: physicochemical; conditions: API alone, 2 mg/mL, one value across 5 min and 30 min
Description: In this implementation example, a micro-scale rotary evaporation method was employed to screen various types of polymers and surfactants, specifically in the context of the active pharmaceutical ingredient (API) ratio of polymer to surfactant.
Acetone was utilized to prepare a stock solution of the active pharmaceutical ingredient at a concentration of 5 mg/mL, a polymer stock solution at 10 mg/mL, and a surfactant stock solution at 10 mg/mL. These solutions were evenly mixed in two identical portions, then centrifuged and dried to create the solid dispersion.
To each sample tube, 1 mL of pH 1.0 and pH 6.8 media was added, and the samples were vortexed at room temperature to ensure complete dispersion. Samples were collected at 5 minutes and 30 minutes, then centrifuged, diluted, and the absorbance was measured to calculate solubility.

[2] = Solubility of tadalafil API in various solvents; assay type: physicochemical; conditions: thermodynamic from solid, 25° C. and 60° C.
Description: A suitable amount of tadalafil was weighed and dissolved in various commonly used organic solvents to identify the most appropriate solvents for establishing UV methodology. The solvents utilized for preparing solid dispersions, along with the solubility of tadalafil, the active pharmaceutical ingredient, in different solvents, are presented in Table 4 below.

pH 1.0(Solubility mg/mL) ([1]; pH 1.0): 0.002 mg/mL
pH 6.8(Solubility mg/mL) ([1]; pH 6.8): 0.027 mg/mL
solubility ([2]; organic solvent or mixture, Acetone): 10.2 to 16.9 mg/mL (≈ 26.1 to 43.5 mM)
solubility ([2]; organic solvent or mixture, Acetonitrile): 16 to 23.9 mg/mL (≈ 41 to 61.5 mM)
solubility ([2]; organic solvent or mixture, Anhydrous ethanol): < 10.8 mg/mL
solubility ([2]; organic solvent or mixture, Dichloromethane): < 10.8 mg/mL
solubility ([2]; organic solvent or mixture, Tetrahydrofuran): 23.8 to 47.6 mg/mL (≈ 61.2 to 122 mM)
solubility ([2]; pH 6.8 medium, aqueous buffer, pH 6.8): < 8.04 mg/mL
SMILES: CN1CC(=O)N2[C@H](c3ccc4c(c3)OCO4)c3[nH]c4ccccc4c3C[C@@H]2C1=O [Tadalafil]
